We go through 18 substances from PMC10611374, “Characterization of the Hemolytic Activity of Mastoparan Family Peptides from Wasp Venoms” (Toxins, 2023).

In test [1] the test system is human red blood cells (HRBCs). The test is described as follows: Hemolytic assay on human red blood cells. The class given is cell-based. The settings on record: for HRBC Hemolysis (hemolysis rate at 320 μg/mL) / EC50: human red blood cells 5% (v/v) in PBS, 37 °C 1 h, OD 540 nm; for HRBC Hemolysis (hemolysis rate at 320 μg/mL): peptide 320 μg/mL (highest dose), PBS = 0%, mean of three independent experiments; for EC50: four-parameter logistic fit of mean of three independent experiments, '-' = hemolytic activity too low to calculate the EC50. As to the method: (§1) Fresh human red blood cells were obtained from healthy donors and collected in a sterile blood collecting vessel covered with sodium citrate (1:9) as the anticoagulating agent. Rat red blood cells were collected from the abdominal aorta in sterile blood-collecting vessels coated with sodium citrate (1:4) after the SD rats were anaesthetized with isoflurane. Then, the cells were washed three times with phosphate-buffered saline via centrifugation (1000× g, 4 °C, 5 min) and prepared in a sterile 96-well polypropylene plate to achieve a final concentration of 5% (v/v). Twofold dilutions of the peptides were prepared in PBS to 100 μL and mixed with an equal volume of HRBCs/RRBCs suspension to final peptide concentrations ranging from 10 to 320 μg/mL. After coincubation at 37 °C for 1 h, the plate was centrifuged (2000× g, 4 °C, 20 min), and 100 μL of supernatant was taken for optical density measurements at 540 nm using a microtiter plate reader (SpectraMax 190). The HRBCs/RRBCs were assayed with PBS (blank) or 1% Triton X-100 (positive control) to represent 0% and 100% hemolysis, respectively. The percent hemolysis was calculated according to the following equation: Hemolysis Rate (%) = 100% × (Amastoparans − Ablank)/(ATriton X-100 − Ablank). Three independent experiments were performed, and the mean hemolysis rate at each dose was used to calculate the EC50 in Sigmaplot software.
(§2) Statistical analysis was performed with GraphPad Prism software (version 5.0, San Diego, CA, USA). A two-tailed Student’s t-test was used to calculate the statistical probability in this study. Differences in the data were considered to be statistically significant when the p value was equal to or less than 0.05. The curve of hemolysis induced by wasp mastoparans was generated in SigmaPlot 12.5 software, and the EC50 was calculated according to the equation (Four Parameter Logistic Curve): y = min + (max − min)/(1 + (x/EC50)^−Hillslope). The heat map of hemolytic activity of mastoparan peptide was analysed in R software which is based on the value of log2(EC50).

For test [2], the system named is rat red blood cells (RRBCs). As to the kind of experiment: Hemolytic assay on rat red blood cells. The class given is cell-based, SD rats. Conditions: rat red blood cells 5% (v/v) in PBS, 37 °C 1 h, OD 540 nm; for RRBC Hemolysis (hemolysis rate at 320 μg/mL): peptide 320 μg/mL (highest dose), PBS = 0%, mean of three independent experiments; for EC50: four-parameter logistic fit of mean of three independent experiments, '-' = hemolytic activity too low to calculate the EC50. How it is done:
as §1, §2

The mark [3] stands for this setting: peptide 10-320 μg/mL twofold dilutions, 1% Triton X-100 = 100%, read-out: HRBC EC50 (hemolytic activity).
Where [4] appears, read: peptide 10-320 μg/mL twofold dilutions, 1% Triton X-100 = 100%, read-out: RRBC EC50 (hemolytic activity).
Setting [5] is: Table 2 series, read-out: HRBC EC50 (hemolytic activity), Protopolybia-MPIII and mutants.
Setting [6] is: Table 2 series, read-out: RRBC EC50 (hemolytic activity), Protopolybia-MPIII and mutants.

For orientation: EC50 means the concentration needed to bring the measured effect to its halfway point.

Where “and” joins values, the source holds several entries; their conditions need not be identical. Equal values may be shown once. Read-outs that look alike come from different tables or passages of the source. Ends that are not written are not given here. Some results are limits rather than exact numbers.

Regarding FDLLGLVKSVVSAL-NH2 [EpVP2b], the “HRBC Hemolysis (hemolysis rate at 320 μg/mL)” value (“HRBC Hemolysis” for short) in test [1] (1% Triton X-100 = 100%) amounted to 100%. Also, the figures for the EC50 in test [1] (setting [3]) and in test [2] (setting [4]) were 34.1 ± 3.5 µM and 50.6 ± 2.6 µM, respectively. Moreover, the “RRBC Hemolysis (hemolysis rate at 320 μg/mL)” value (“RRBC Hemolysis” below) in test [2] (1% Triton X-100 = 100%) is recorded as 100%.
With INWLKLGKKVSAIL-NH2 [Protopolybia-MP I], the EC50 in test [1] (setting [5]), in test [1] (setting [3]), in test [2] (setting [6]) and in test [2] (setting [4]) was more than 400 µM in each case. The “HRBC Hemolysis” value in test [1] (1% Triton X-100 = 100%) is recorded as 5%. Moreover, the “hemolytic activity on HRBCs, result in words” value in test [1] (mutants relative to Protopolybia-MPIII) is on record as “almost no hemolytic activity”. For the same substance, the “RRBC Hemolysis” value in test [2] (1% Triton X-100 = 100%) was 5%.
As for INMKAVAAVAKKPL-NH2 [MP-VB2], the “HRBC Hemolysis” value in test [1] (1% Triton X-100 = 100%) was 0%. Moreover, the “RRBC Hemolysis” value in test [2] (1% Triton X-100 = 100%) was determined as 0%.
Regarding GRILSFIKGLAEHL-NH2 [EMP-OD], in test [1] (1% Triton X-100 = 100%), the “HRBC Hemolysis” value came to 2%. The “RRBC Hemolysis” value in test [2] (1% Triton X-100 = 100%) stood at 49%. Also, in test [2] (setting [4]), the half-maximal effective concentration (EC50) is 190 ± 32 µM.
“INWLKLGKAVSAIL-NH2 [Protopolybia-MPIII-11]”: the results for the EC50 in test [1] (setting [5]) and in test [2] (setting [6]) were 141 ± 2.4 µM and 134 ± 2.2 µM, respectively.
For INLKAIAALVKKVL-NH2 [HR1], in test [1] (1% Triton X-100 = 100%), the “HRBC Hemolysis” value stood at 56%. Moreover, the EC50 in test [1] (setting [3]) is 198 ± 8.9 µM; in test [2] (setting [4]), 253 ± 13 µM. Besides, the “RRBC Hemolysis” value in test [2] (1% Triton X-100 = 100%) turned out to be 39%.
As to “INWLKLGKKVIAAL-NH2 [Protopolybia-MPIII-6]”, the EC50 in test [1] (setting [5]) is 110 ± 2.5 µM; in test [2] (setting [6]), 108 ± 3.2 µM.
Regarding INLRGFAALVKKFL-NH2 [Mastoparan-T3], in test [1] (1% Triton X-100 = 100%), the “HRBC Hemolysis” value was 100%. The values for the half-maximal effective concentration (EC50) in test [1] (setting [3]) and in test [2] (setting [4]) were 112 ± 8 µM and 51.6 ± 2.1 µM, respectively. In addition, in test [2] (1% Triton X-100 = 100%), the “RRBC Hemolysis” value came out at 100%.
For the substance INWKGIAAMAKKLL-NH2 [Mastoparan-X(V)], the “HRBC Hemolysis” value in test [1] (1% Triton X-100 = 100%) is 29%. For the same substance, the half-maximal effective concentration (EC50) in test [1] (setting [3]) was ≤ 400 µM and 349 µM; in test [2] (setting [4]), 156 ± 2.4 µM. For the same substance, in test [2] (1% Triton X-100 = 100%), the “RRBC Hemolysis” value turned out to be 70%.
With INWLKLGKQILGAL-NH2 [Pm-R3], in test [1] (1% Triton X-100 = 100%), the “HRBC Hemolysis” value is 100%. Besides, the figures for the EC50 in test [1] (setting [3]) and in test [2] (setting [4]) were 32.3 ± 1.7 µM and 73.5 ± 5.1 µM, respectively. Moreover, in test [2] (1% Triton X-100 = 100%), the “RRBC Hemolysis” value stood at 100%.
Turning to INLKVFAALVKKFL-NH2 [Mastoparan-T1], in test [1] (1% Triton X-100 = 100%), the “HRBC Hemolysis” value amounted to 100%. Moreover, the EC50 in test [1] (setting [3]) is 30.8 ± 1.6 µM; in test [2] (setting [4]) it was 22.7 ± 7.1 µM. Also, in test [2] (1% Triton X-100 = 100%), the “RRBC Hemolysis” value is recorded as 87%.
INWKKIKSIIKAAMN-NH2 [Mastoparan-V1]: the “HRBC Hemolysis” value in test [1] (1% Triton X-100 = 100%) worked out at 9%. In test [2] (1% Triton X-100 = 100%), the “RRBC Hemolysis” value stood at 16%.
On to INLKVFAALVKKLL-NH2 [Mastoparan-T2], for which the “HRBC Hemolysis” value in test [1] (1% Triton X-100 = 100%) came out at 100%. In addition, the EC50 is 11.8 ± 3.1 µM in test [1] (setting [3]) and 21.1 ± 2.4 µM in test [2] (setting [4]). In test [2] (1% Triton X-100 = 100%), the “RRBC Hemolysis” value is on record as 100%.
Regarding FDLLGLVKKVASAL-NH2 [EpVP2a], in test [1] (1% Triton X-100 = 100%), the “HRBC Hemolysis” value is on record as 79%. Also, the EC50 was 152 ± 6.3 µM in test [1] (setting [3]) and 239 ± 7.6 µM in test [2] (setting [4]). Moreover, the “RRBC Hemolysis” value in test [2] (1% Triton X-100 = 100%) turned out to be 41%.
Turning to FDVMGIIKKIASAL-NH2 [EMP-EF], the “HRBC Hemolysis” value in test [1] (1% Triton X-100 = 100%) is given as 100%. In addition, the concentration for a half-maximal effect (EC50) in test [1] (setting [3]) was 125 ± 20.6 µM; in test [2] (setting [4]), 216.8 ± 1.6 µM. In addition, the “RRBC Hemolysis” value in test [2] (1% Triton X-100 = 100%) was determined as 48%.
Take INWLKLGKAVIDAL-NH2 [Protopolybia-MPIII]: the “HRBC Hemolysis” value in test [1] (1% Triton X-100 = 100%) is recorded as 96%. In addition, the EC50 in test [1] (setting [3]) is 61.9 ± 8.3 µM; in test [2] (setting [6]) it was 42.8 ± 2.1 µM; in test [2] (setting [4]), 34.6 ± 2.8 µM. Further, the “RRBC Hemolysis” value in test [2] (1% Triton X-100 = 100%) came out at 93%.
Turning to INLFGFAALVKKFL-NH2 [Mastoparan-T4], the “HRBC Hemolysis” value in test [1] (1% Triton X-100 = 100%) is reported as 100%. Besides, the EC50 is 28.5 ± 2.3 µM in test [1] (setting [3]) and 17.6 ± 2.4 µM in test [2] (setting [4]). In addition, in test [2] (1% Triton X-100 = 100%), the “RRBC Hemolysis” value is listed as 100%.
In the case of INLKAIAALAKKLF-NH2 [Mastoparan AF], the “HRBC Hemolysis” value in test [1] (1% Triton X-100 = 100%) amounted to 47%. Further, the values for the half-maximal effective concentration (EC50) in test [1] (setting [3]) and in test [2] (setting [4]) were 227 ± 3.1 µM and 107 ± 15.7 µM, respectively. In test [2] (1% Triton X-100 = 100%), the “RRBC Hemolysis” value turned out to be 92%.
